Measured values published in ChEMBL document CHEMBL2074009, “Possible involvement of P-glycoprotein in biliary excretion of CPT-11 in rats” (Drug Metab Dispos, 1999).

Target: Multidrug resistance protein 1a (Rattus norvegicus) (UniProt Q6PSM0)
Assay: TP_TRANSPORTER: uptake (high affinity, inhibited by PSC-833, Verapamil and Cyclosporin A) in bile canalicular membrane vesicles from SD rat
Format: functional, cell membranes
Conditions: Sprague-Dawley, Bile canalicular membrane vesicle

Chain of Multidrug resistance protein 1a (Rattus norvegicus) (Q6PSM0 as listed by the source): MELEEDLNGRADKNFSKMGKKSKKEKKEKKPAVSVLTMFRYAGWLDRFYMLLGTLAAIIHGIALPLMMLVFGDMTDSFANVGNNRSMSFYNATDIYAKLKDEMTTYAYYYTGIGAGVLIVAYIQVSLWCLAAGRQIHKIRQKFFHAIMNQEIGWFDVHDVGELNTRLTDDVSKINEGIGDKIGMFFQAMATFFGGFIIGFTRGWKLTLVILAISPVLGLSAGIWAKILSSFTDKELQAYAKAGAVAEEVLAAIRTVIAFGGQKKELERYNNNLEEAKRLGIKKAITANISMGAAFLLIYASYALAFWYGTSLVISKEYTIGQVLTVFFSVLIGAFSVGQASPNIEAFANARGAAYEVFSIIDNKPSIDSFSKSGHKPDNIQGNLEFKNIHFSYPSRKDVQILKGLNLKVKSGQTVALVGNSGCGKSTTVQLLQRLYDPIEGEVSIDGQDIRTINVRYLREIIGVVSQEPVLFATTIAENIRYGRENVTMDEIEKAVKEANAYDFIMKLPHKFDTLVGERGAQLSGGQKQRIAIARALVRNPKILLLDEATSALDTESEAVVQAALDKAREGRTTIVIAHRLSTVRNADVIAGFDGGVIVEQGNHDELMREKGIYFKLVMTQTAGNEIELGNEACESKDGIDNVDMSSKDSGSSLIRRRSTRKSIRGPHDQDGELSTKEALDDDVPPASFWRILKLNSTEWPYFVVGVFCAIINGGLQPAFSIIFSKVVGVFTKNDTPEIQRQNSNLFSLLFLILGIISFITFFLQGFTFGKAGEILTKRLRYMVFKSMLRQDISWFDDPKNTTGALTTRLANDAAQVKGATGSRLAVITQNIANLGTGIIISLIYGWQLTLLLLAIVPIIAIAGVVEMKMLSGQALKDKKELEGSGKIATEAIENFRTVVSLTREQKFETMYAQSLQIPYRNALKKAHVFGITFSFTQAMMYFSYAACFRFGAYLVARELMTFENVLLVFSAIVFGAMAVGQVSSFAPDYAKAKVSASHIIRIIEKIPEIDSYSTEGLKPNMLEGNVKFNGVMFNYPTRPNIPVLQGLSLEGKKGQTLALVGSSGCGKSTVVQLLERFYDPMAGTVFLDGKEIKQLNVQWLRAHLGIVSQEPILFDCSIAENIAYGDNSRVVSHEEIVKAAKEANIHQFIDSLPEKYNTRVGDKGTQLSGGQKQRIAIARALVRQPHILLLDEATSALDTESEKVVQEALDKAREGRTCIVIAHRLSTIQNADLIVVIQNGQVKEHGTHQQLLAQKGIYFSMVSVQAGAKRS

`CCc1c2c(nc3ccc(OC(=O)N4CCC(N5CCCCC5)CC4)cc13)-c1cc([C@@](O)(CC)C(=O)O)c(CO)c(=O)n1C2` was tested, and the Activity was “substrate [+]”.
